Assay [1] concerns Foxp3 CNS1-luciferase reporter / Smad3. The assay can be described thus: Foxp3 CNS1-luciferase reporter assay in NIH/3T3 cells. In kind it is cell-based, mouse. The settings on record: 20 μM. The protocol: Figure 4 Dleu2-17aa modulates TGF-β/Smad signaling to promote Foxp3 transcription. (A) qPCR analysis of TGF-β/Smad signaling downstream genes in CD4^+ T cells treated with Dleu2-17aa or scrPEP for 24 h and challenged with TGF-β to activate the signaling pathway (n = 3). (B) NIH/3T3 cells were transfected with a Foxp3 CNS1-luciferase reporter plasmid and a Smad3 expression vector. Subsequently, the cells were treated with either Dleu2-17aa or scrPEP. Luciferase activity fold induction was quantified (n = 3). (C) Foxp3 CNS1 region enrichment by Smad3 treated with or without Dleu2-17aa for 24 h in CD4^+ T cells was assessed by ChIP-qPCR (n = 3). (D) EMSA was performed in NIH/3T3 cell nuclear lysates using a 10 μM biotin-labeled Foxp3 probe and treated with Dleu2-17aa or scrPEP (3, 10, 30 μM). There were band shifts to a higher molecular weight and an increase in band intensity by Dleu2-17aa treatment. Data information: n indicates biological replicate. Error bars are mean ± SEM; **P < 0.01, and ***P < 0.001. Statistical analysis was by two-tailed Student’s t-test for (A–C). Source data are available online for this figure.
NIH/3T3 cells were seeded at 5 × 10^5 cells/well in 24-well plates and transfected with 0.2 μg/well of pGL3 Foxp3 CNS1-luciferase reporter and the internal control vector pRL-TK (Promega) at a ratio of 10:1 (reporter construct: control vector) using LipofectamineTM 2000 according to the manufacturer’s protocol; For specific groups, co-transfect with pcDNA3.1-Smad3, an empty vector served as the control. After 7 h, remove the transfection medium and replace it with fresh medium containing either 20 μM Dleu2-17aa or PBS. 24 h post-transfection, luciferase activity was measured using the Dual-Luciferase® Reporter Assay System (Promega) according to the manufacturer’s protocol.
Background: A reporter such as luciferase makes a cellular process visible.

Assay [2] has as its system CD4+ T cells in CNS of EAE mice. Kind of assay: Flow cytometry of CNS T cells of treated EAE mice. The assay is classed as in vivo, mouse. The settings on record: 100 μg i.v., replicate 4. (In general: A flow cytometer gives signals particle by particle.)

“ARGPARRMRGGRRRRLR [scrPEP, scrambled control peptide of Dleu2-17aa]”: the Relative luciferase activity worked out at 2.57 in assay [1] (with Smad3 vector, replicate 1); 2.653 in assay [1] (with Smad3 vector, replicate 2); 2.615 in assay [1] (with Smad3 vector, replicate 3); 0.9636 in assay [1] (without Smad3 vector, replicate 1); 0.91 in assay [1] (without Smad3 vector, replicate 2); 1.069 in assay [1] (without Smad3 vector, replicate 3). In assay [2], the “CD4+ / Live Cells(%)” value is 10.2%. In addition, the “Foxp3+/ CD4+ Cells (%)” value in assay [2] is on record as 10.5%. For the same sequence, the “IFN-γ+/ CD4+ Cells(%)” value in assay [2] was determined as 22.6%.

Values taken from publication PMC10933344, “A lncRNA Dleu2-encoded peptide relieves autoimmunity by facilitating Smad3-mediated Treg induction” (EMBO Reports, 2024).
